Measured values reported in patent US20080090805A1, “CB-1 MODULATING COMPOUNDS AND THEIR USE” (ACADIA PHARMACEUTICALS INC., priority 2005, published 2008).

Experiments:
[1] = Clearance study, liver microsomes (mice); settings: mouse, pH 7.4
[2] = Clearance study, liver microsomes (rats); settings: rat, pH 7.4
[3] = Clearance study, liver microsomes (human); settings: pH 7.4

| microsomal CLint at 1 μM [1] [µL/min/mg] | microsomal CLint at 1 μM [2] [µL/min/mg] | microsomal CLint at 1 μM [3] [µL/min/mg] | Compound |
| --- | --- | --- | --- |
| 238 | 166 | 56 | O=C(NCc1cccs1)c1ccc2c(c1)N=C(c1cccc(F)c1)c1ccccc1S2 [drawing 1658] |
| 171 | 171 | 52 | O=C(NCc1cccs1)c1ccc2c(c1)N=C(c1ccc(F)cc1)c1ccccc1S2 [drawing 1659] |
| 38 | 33 | 19 | O=C(NCc1cccnc1)c1ccc2c(c1)N=C(c1ccc(Cl)c(Cl)c1)c1ccccc1S2 [drawing 1664] |
| 249 | 77 | 25 | CC(C)CCNC(=O)c1ccc2c(c1)N=C(c1cccc(Cl)c1)c1ccccc1S2 [drawing 1665] |
| 27 | 25 | 21 | O=C(NCc1ccco1)c1ccc2c(c1)N=C(c1ccc(Cl)c(Cl)c1)c1ccccc1S2 [drawing 1666] |
| 82 | 65 | 41 | O=C(NCCc1cccnc1)c1ccc2c(c1)N=C(c1ccc(Cl)c(Cl)c1)c1ccccc1S2 [drawing 1668] |
| 266 | 80 | 32 | CCCCNC(=O)c1ccc2c(c1)N=C(c1ccc(Cl)s1)c1ccccc1S2 [drawing 1669] |
| 32 | 31 | 32 | O=C(NCc1cccc(Cl)c1)c1ccc2c(c1)N=C(c1ccc(F)cc1)c1ccccc1S2(=O)=O [drawing 1670] |
| 107 | 26 | 4 | CC(C)CNC(=O)c1ccc2c(c1)N=C(c1ccc(Cl)c(Cl)c1)c1ccccc1S2 [drawing 1671] |
| 124 | 48 | 28 | O=C(NCc1ccccc1Cl)c1ccc2c(c1)N=C(c1cccc(Cl)c1)c1ccccc1S2 [drawing 1674] |
| 58 | 48 | 12 | O=C(NC1CCCCC1)c1ccc2c(c1)N=C(c1cccc(Cl)c1)c1ccccc1S2 [drawing 1675] |
| 126 | 60 | 32 | O=C(NN1CCCCC1)c1ccc2c(c1)N=C(c1ccc(Cl)cc1)c1ccccc1S2 [drawing 1676] |
| 98 | 51 | 20 | CC(C)CNC(=O)c1ccc2c(c1)N=C(c1ccc(Cl)cc1F)c1ccccc1S2 [drawing 1677] |
| 62 | 108 | 31 | O=C(NC1CCCCC1)c1ccc2c(c1)N=C(c1ccc(F)cc1)c1ccccc1S2 [drawing 1683] |
| 133 | 93 | 35 | O=C(NCc1ccco1)c1ccc2c(c1)N=C(c1cccc(Cl)c1)c1ccccc1S2 [drawing 1684] |
| 96 | 48 | 3 | O=C(NCc1cccc(Cl)c1)c1ccc2c(c1)N=C(c1ccc(Cl)cc1)c1cc(F)ccc1S2 [drawing 1686] |
| 360 | 186 | 122 | O=C(NN1CCCCCC1)c1ccc2c(c1)N=C(c1ccc(Cl)s1)c1ccccc1S2 [drawing 1687] |
| 124 | 162 | 59 | O=C(NN1CCCCCC1)c1ccc2c(c1)N=C(c1cccc(Cl)c1)c1ccccc1S2 [drawing 1689] |
| 122 | 96 | 238 | O=C(NCCc1cccnc1)c1ccc2c(c1)N=C(c1ccc(Cl)s1)c1ccccc1S2 [drawing 1690] |
| 694 | 63 | 15 | CCCNC(=O)c1ccc2c(c1)N=C(c1ccc(Cl)cc1)c1ccccc1S2 [drawing 1691] |
| 647 | 152 | 65 | CCCCNC(=O)c1ccc2c(c1)N=C(c1cccc(F)c1)c1ccccc1S2 [drawing 1700] |
| 477 | 320 | 70 | CCCCNC(=O)c1ccc2c(c1)N=C(c1ccc(Cl)cn1)c1ccccc1S2 [drawing 1704] |
| 448 | 358 | 118 | Cc1ccsc1C1=Nc2cc(C(=O)NN3CCCCCC3)ccc2Sc2ccccc21 [drawing 1706] |
| 218 | 113 | 78 | COc1ccc(C2=Nc3cc(C(=O)NCC(C)C)ccc3Sc3ccccc32)cc1 [drawing 1708] |
| 78 | 43 | 8 | O=C(NC1CCCCC1)c1ccc2c(c1)N=C(c1ccc(Cl)cc1)c1ccccc1S2 [drawing 1712] |

| microsomal CLint at 1 μM [1] [µL/min/mg] | microsomal CLint at 1 μM [2] [µL/min/mg] | microsomal CLint at 1 μM [3] [µL/min/mg] | Compound |
| --- | --- | --- | --- |
| 184 | 97 | 30 | O=C(NCc1cccs1)c1ccc2c(c1)N=C(c1ccc(Cl)s1)c1ccccc1S2 [drawing 1723] |
| 101 | 107 | 61 | O=C(NCc1cccnc1)c1ccc2c(c1)N=C(c1ccc(F)cc1)c1ccccc1S2 [drawing 1724] |
| 238 | 58 | 9 | O=C(NCc1cccc(Cl)c1)c1ccc2c(c1)N=C(c1ccc(Cl)cc1)c1ccccc1S2 [drawing 1725] |
| 83 | 70 | 39 | O=C(NCc1cccnc1)c1ccc2c(c1)N=C(c1ccc(Br)cc1)c1ccccc1S2 [drawing 1728] |
| 385 | 304 | 50 | Cc1ccsc1C1=Nc2cc(C(=O)NN3CCCCC3)ccc2Sc2ccccc21 [drawing 1730] |
| 187 | 99 | 32 | O=C(NCc1cccs1)c1ccc2c(c1)N=C(c1cccc(Cl)c1)c1ccccc1S2 [drawing 1733] |
| 90 | 76 | 17 | O=C(NCc1cccs1)c1ccc2c(c1)N=C(c1ccc(Cl)cc1)c1ccccc1S2 [drawing 1735] |
| 53 | 41 | 31 | CCCCNC(=O)c1ccc2c(c1)N=C(c1ccc(Cl)cc1)c1ccccc1[S+]2[O-] (stereo not drawn) [drawing 1736] |
| 130 | 56 | 16 | O=C(NCc1ccc(F)cc1)c1ccc2c(c1)N=C(c1ccc(Cl)cc1)c1ccccc1S2 [drawing 1741] |
| 127 | 187 | 73 | O=C(NCc1cccnc1)c1ccc2c(c1)N=C(c1cccc(F)c1)c1ccccc1S2 [drawing 1742] |
| 386 | 225 | 89 | O=C(NCc1cccs1)c1ccc2c(c1)N=C(c1ccccc1F)c1ccccc1S2 [drawing 1744] |
| 668 | 264 | 56 | CCCCNC(=O)c1ccc2c(c1)N=C(c1ccc(F)cn1)c1ccccc1S2 [drawing 1752] |
| 92 | 80 | 41 | O=C(NCc1cccnc1)c1ccc2c(c1)N=C(c1ccc(Cl)cc1)c1ccccc1S2 [drawing 1756] |
| 176 | 90 | 29 | O=C(NC1CCCCC1)c1ccc2c(c1)N=C(c1cccc(F)c1)c1ccccc1S2 [drawing 1757] |
| 659 | 318 | 513 | C[C@@H]1CCC[C@H](C)N1NC(=O)c1ccc2c(c1)N=C(c1cccc(F)c1)c1ccccc1S2 [drawing 1758] |
| 73 | 46 | 37 | O=C(NCc1ccccn1)c1ccc2c(c1)N=C(c1ccc(Cl)cc1)c1ccccc1S2 [drawing 1760] |
| 354 | 125 | 43 | CC(C)CNC(=O)c1ccc2c(c1)N=C(c1ccc(F)cc1)c1ccccc1S2 [drawing 1761] |
| 755 | 395 | 155 | Cc1ccsc1C1=Nc2cc(C(=O)NCc3ccco3)ccc2Sc2ccccc21 [drawing 1762] |
| 205 | 85 | 23 | O=C(NCc1ccccc1)c1ccc2c(c1)N=C(c1cccc(Cl)c1)c1ccccc1S2 [drawing 1767] |
| 82 | 154 | 130 | O=C(NCCc1cccnc1)c1ccc2c(c1)N=C(c1cccc(Cl)c1)c1ccccc1S2 [drawing 1770] |
| 37 | 31 | 11 | O=C(NCc1ccc(F)cc1)c1ccc2c(c1)N=C(c1ccc(Cl)cc1)c1ccccc1[S+]2[O-] (stereo not drawn) [drawing 1772] |
| 275 | 493 | 58 | O=C(NCc1ccc(F)cc1)c1ccc2c(c1)N=C(C1CCCCC1)c1ccccc1S2 [drawing 1775] |
| 852 | 542 | 227 | Cc1ccsc1C1=Nc2cc(C(=O)NCc3cccs3)ccc2Sc2ccccc21 [drawing 1781] |
| 416 | 290 | 64 | O=C(NN1CCCCC1)c1ccc2c(c1)N=C(c1ccc(Cl)cn1)c1ccccc1S2 [drawing 1786] |
| 166 | 63 | 23 | O=C(NCc1ccccc1)c1ccc2c(c1)N=C(c1ccc(Cl)cc1)c1ccccc1S2 [drawing 1801] |
